Where two headings read alike, the source gives them in different places.
Assays:
δOR = target: T1, δOR (Homo sapiens, UniProt P41143); assay: competitive radioligand binding with [3H]diprenorphine, membranes of transfected HEK 293T cells
T1 construct: expressed in transfected cells; host or cells: HEK 293T cells, transient transfection, membrane preparation
Description: (§1) To verify the subtype selectivity of the described compounds for µOR over δOP and κOR, respectively, the binding affinities of the described examples to the different human opioid receptors in an in-vitro test system were measured.
(§2) For the determination of receptor binding affinity competitive radioligand binding experiments were performed as described in literature (H. Huebner, C. Haubmann, W. Utz, P. Gmeiner, J. Med. Chem., 2000, 43, 756-762). In brief, HEK 293T cells were transiently transfected with the cDNAs coding for the human opioid receptor subtypes µOR, δOR, and kOR, respectively, using a solution of polyethylenimine in PBS (PEI, linear, 25 kDa, Polysciences) as transfection reagent at a 3:1 PEI to cDNA ratio (I. Fish, A. Stoessel, K. Eitel, C. Valant, S. Albold, H. Huebner, D. Moeller, M.J. Clark, R.K. Sunahara, A. Christopoulos, B.K. Shoichet, P. Gmeiner, J. Med. Chem., 2017, 60, 9239-9250). After preparation of membranes, radioligand displacement assays were run in 96-well format at a final volume of 200 µL in binding buffer (50 mM Tris-HCI, 1 mM EDTA, 5 mM MgCl2, 100 µg/mL bacitracin, 5 µg/mL soybean trypsin inhibitor, pH 7.4) with the radioligand [^3H]diprenorphine (specific activity = 31 Ci/mmol) at a final concentration of 0.20-0.30 nM. […] Unspecific binding was determined in the presence of 10 µM of the naloxone. Protein concentrations were determined employing the method of Lowry with bovine serum albumin as standard (O.H. Lowry, N.J. Rosebrough, A.L. Farr, R.J. Randall, J. Biol. Chem., 1951, 193, 265-275). The resulting competition curves of the receptor binding experiments were analyzed by nonlinear regression. The data were initially fit using a sigmoid model to provide IC50 values, which were subsequently transformed to Ki values according to the equation of Cheng and Prusoff (Y.-C. Cheng, W. H. Prusoff, Biochem. Pharmacol., 1973, 22, 3099-3108). Three to seven experiments per compound were performed, with each concentration in triplicate.

κOR = target: T2, κOR (Homo sapiens, UniProt P41145); assay: as above
T2 construct: expressed in transfected cells; host or cells: HEK 293T cells, transient transfection, membrane preparation
Description: as §1
After preparation of membranes, radioligand displacement assays were run in 96-well format at a final volume of 200 µL in binding buffer (50 mM Tris-HCI, 1 mM EDTA, 5 mM MgCl2, 100 µg/mL bacitracin, 5 µg/mL soybean trypsin inhibitor, pH 7.4) with the radioligand [^3H]diprenorphine (specific activity = 31 Ci/mmol) at a final concentration of 0.20-0.30 nM. […] Unspecific binding was determined in the presence of 10 µM of the naloxone. […] The resulting competition curves of the receptor binding experiments were analyzed by nonlinear regression. […] Three to seven experiments per compound were performed, with each concentration in triplicate.

µOR [1] = target: T3, µOR (Homo sapiens, UniProt P35372); assay: as above; parameters: expressed in transfected cells; host or cells: HEK 293T cells, transient transfection, membrane preparation
Description: as §1, §2

µOR [2] = target: T3, µOR; assay: G-protein mediated signaling, IP1 accumulation assay (HTRF) in HEK-293T cells with hybrid G-protein Gαqi; type: cell-based; parameters: expressed in transfected cells; host or cells: HEK-293T cells, transient transfection; conditions: for Emax: HEK-293T, read-out: G-protein signaling Emax; for G-protein signaling EC50: mean of 3-9 experiments, 180 min at 37 °C, CBA = could not be analyzed (no dose-response curve)
Description: (§3) Functionally selective drugs, which are biased towards Gi protein activation over β-arrestin signaling at the µOR are indicated to show an improved side effect profile. Thus, the characterization of the functional properties of the described examples at the µOR were performed by determination of the ligand stimulated G-protein related signaling and β-arrestin recruitment applying cell based in-vitro test systems. Full and partial agonists as well as antagonists for G protein related signaling were identified.
The determination of G-protein stimulated µOR activation was measured applying an IP1 accumulation assay as described previously (J. Kruell, S.K. Fehler, L. Hofmann, N. Nebel, S. Maschauer, O. Prante, P. Gmeiner, H. Lanig, H. Huebner, M.R. Heinrich. ChemMedChem 2020, 15, 1175-1186. C. Gentzsch, K. Seier, A. Drakopoulos, M.-L. Jobin, Y. Lanoiselee, Z. Koszegi, D. Maurel, R. Sounier, H. Huebner, P. Gmeiner, S. Granier, D. Calebiro, M. Decker. Ang. Chem. Int. Ed. 2020, 59, 2-9). In brief, HEK-293T cells were grown to confluence of approximately 70% and transiently transfected with the cDNA of the human µOR receptor and the hybrid G-protein Gαqi. After one day cells were seeded into 384-well microplates. For testing cells were incubated with test compounds (final range of concentration from 1 pM up to 10 µM) for 180 min at 37 °C followed by addition of detection reagents. Time resolved fluorescence resonance energy transfer (HTRF) was determined using a microplate reader. Each compound was tested in duplicates in 3-9 individual experiments in comparison to the reference compound DAMGO. The resulting dose response curves were analyzed by nonlinear regression using the algorithms in PRISM 6.0 (GraphPad software, San Diego, CA), fitted with a sigmoid model and normalized to basal activity (0 %) and the maximal effect caused by the reference full agonist DAMGO (100 %).
(§4) In the above table, the numbers indicate mean EC50 values in nM and Emax values relative to the full effect of reference agonist DAMGO [=100%], respectively and are derived from 3-9 individual experiments for G-protein signaling and 3-8 tests for arrestin recruitment. ND = not determined.

µOR [3] = target: T3, µOR; assay: β-arrestin-2 recruitment, enzyme-fragment complementation assay in HEK-293 cells; type: cell-based; parameters: expressed in transfected cells; host or cells: HEK-293 cells stably expressing EA-tagged β-arrestin-2, transiently transfected with µOR-PK1; conditions: for Emax: HEK293, relative to the full effect of reference agonist DAMGO [=100%]; for β-arrestin recruitment EC50: mean of 3-8 tests, 90 min incubation, CBA = could not be analyzed (no dose-response curve)
Description: as §3
Measurement of β-arrestin-2 recruitment was done applying an enzyme-fragment complementation assay as described previously (C. Gentzsch, K. Seier, A. Drakopoulos, M.-L. Jobin, Y. Lanoiselee, Z. Koszegi, D. Maurel, R. Sounier, H. Huebner, P. Gmeiner, S. Granier, D. Calebiro, M. Decker. Ang. Chem. Int. Ed. 2020, 59, 2-9. J. Hellmann, M. Drabek, J. Yin, J. Gunera, T. Proell, F. Kraus, C.J. Langmead, H. Huebner, D. Weikert, P. Kolb, D.M. Rosenbaum, P. Gmeiner. PNAS 2020, 117, 18059-18067). In brief, HEK-293 cells stably expressing the enzyme acceptor (EA) tagged β-arrestin-2 fusion protein were transiently co-transfected with the ProLink tagged µOR-PK1 After 24 h cells were transferred into 384-well microplates and cultured for further 24 h. To start arrestin recruitment compounds were added to the cells to get a final concentration in a range of 10 pM to 100 µM. After incubation for 90 min reaction was stopped by addition of detection mix. Chemiluminescence was determined in duplicates (3-8 individual experiments for each compound in comparison to the reference agonist DAMGO). Data analysis was done as described above.
as §4

[4] = radioligand [3H]diprenorphine, number in brackets = number of experiments, read-out: mean Ki value κOR
[5] = radioligand [3H]diprenorphine, number in brackets = number of experiments, read-out: mean Ki value δOR

SMILES | Ki (δOR) | Ki (κOR) | Ki (µOR [1]) | binding to δOR (in words) (δOR; statement in text referring to the radioligand binding table) | Ki (κOR; [4]) | EC50 (µOR [2]) | Emax (µOR [2]) | Emax (µOR [3]) | β-arrestin recruitment EC50 (µOR [3]) | Ki (δOR; [5]) | G-protein signaling EC50 (µOR [2])
CN(C)[C@H](COC(=O)C=Cc1ccccc1)Cc1ccc(O)cc1 (stereo in doubt) [Comparative Example 2, (S)-2-(Dimethylamino)-3-(4-hydroxyphenyl)propyl cinnamate, reference compound] | 860 nM | 320 nM | 230 nM | – | – | – | – | – | – | – | –
CN(C)[C@H](CNC(=O)C=Cc1ccccc1)Cc1ccc(O)cc1 (stereo in doubt) [Example 1, (S)-N-(2-(Dimethylamino)-3-(4-hydroxyphenyl)propyl)cinnamamide] | 25 nM | – | 13 nM | high affinity | 120 nM | 7 nM | 63% | < 5% | CBA | – | –
CN(C)[C@](C)(CNC(=O)C=Cc1ccccc1)Cc1ccc(O)cc1 (stereo in doubt) [Example 5, (S)-N-(2-(Dimethylamino)-3-(4-hydroxyphenyl)-2-methylpropyl)cinnamamide] | 1300 nM | 970 nM | 310 nM | – | – | – | – | – | – | – | –
CN(C)[C@H](COC(=O)NCCc1ccsc1)Cc1ccc(O)cc1 [Comparative Example 1, (S)-2-(Dimethylamino)-3-(4-hydroxyphenyl)propyl (2-(thiophen-3-yl)ethyl)carbamate formiate, reference compound] | 3000 nM | 3300 nM | 2400 nM | – | – | – | – | – | – | – | –
CN(C)[C@H](CNC(=O)/N=N/c1ccccc1)Cc1ccc(O)cc1 [Comparative Example 3, (S,E)-N-(2-(Dimethylamino)-3-(4-hydroxyphenyl)propyl)-2-phenyldiazene-1-carboxamide formiate, reference compound] | 630 nM | 540 nM | 66 nM | – | – | – | – | – | – | – | –
CN(C)[C@H](CNC(=O)C#Cc1ccccc1)Cc1ccc(O)cc1 [Example 2, (S)-N-(2-(Dimethylamino)-3-(4-hydroxyphenyl)propyl)-3-phenylpropiolamide] | – | – | 18 nM | – | 230 nM | 22 nM | 42% | < 5% | CBA | 140 nM | –
C/C(=C\C(=O)NC[C@H](Cc1ccc(O)cc1)N(C)C)c1ccccc1 [Example 3, (S,E)-N-(2-(Dimethylamino)-3-(4-hydroxyphenyl)propyl)-3-phenylbut-2-enamide] | – | – | 28 nM | – | 120 nM | 11 nM | 76% | < 5% | CBA | 120 nM | –
C/C(=C\c1ccccc1)C(=O)NC[C@H](Cc1ccc(O)cc1)N(C)C [Example 4, (S,E)-N-(2-(Dimethylamino)-3-(4-hydroxyphenyl)propyl)-2-methyl-3-phenylacrylamide] | 49 nM | – | 46 nM | – | 110 nM | 17 nM | 62% | < 5% | CBA | – | –
CN(C)[C@H](CNC(=O)/C=C/c1cccc2ccccc12)Cc1ccc(O)cc1 [Example 6, (S,E)-N-(2-(Dimethylamino)-3-(4-hydroxyphenyl)propyl)-3-(naphthalen-1-yl)acrylamide] | – | 180 nM | – | – | – | 20 nM | – | < 5% | CBA | – | –
Cc1cc(O)cc(C)c1C[C@H](N)CNC(=O)/C=C/c1cccc(C(F)(F)F)c1 [Example 11, (S,E)-N-(2-Amino-3-(4-hydroxy-2,6-dimethylphenyl)propyl)-3-(3-(trifluoromethyl)phenyl)acrylamide formiate] | 360 nM | 220 nM | 19 nM | – | – | – | < 5% | – | – | – | CBA
CN[C@H](CNC(=O)/C=C/c1cccc(C(F)(F)F)c1)Cc1c(C)cc(O)cc1C [Example 12, (S,E)-N-(3-(4-Hydroxy-2,6-dimethylphenyl)-2-(methylamino)propyl)-3-(3-(trifluoromethyl)phenyl)acrylamide formiate] | 310 nM | 310 nM | 12 nM | – | – | – | < 5% | – | – | – | CBA
Cc1cccc(/C=C/C(=O)NC[C@H](Cc2ccc(O)cc2)N(C)C)c1 [Example 13, (S,E)-N-(2-(Dimethylamino)-3-(4-hydroxyphenyl)propyl)-3-(m-tolyl)acrylamide] | – | – | 26 nM | – | 500 nM | 41 nM | 78% | – | – | 300 nM | –
CN(C)[C@H](CNC(=O)/C=C/c1ccc(F)c(C(F)(F)F)c1)Cc1ccc(O)cc1 [Example 16, (S,E)-N-(2-(Dimethylamino)-3-(4-hydroxyphenyl)propyl)-3-(4-fluoro-3-(trifluoromethyl)phenyl)acrylamide formiate] | 250 nM | 600 nM | 23 nM | – | – | 40 nM | 102% | – | – | – | –

— patent EP3964497A1, “SUBSTITUTED VICINAL DIAMINE COMPOUNDS AND THEIR USE IN THE TREATMENT, AMELIORATION OR PREVENTION OF PAIN” (priority 2020, dated 2022)
